Key:
Ba/F3-CD74-ROS1-G2032R = test: Inhibition of cell proliferation (CellTiter-Glo), Ba/F3-CD74-ROS1-G2032R; type: cell-based; settings: 72 hours
Experimental: (§1) The experiment of inhibiting cell proliferation by compounds was carried out in Hefei Zhongkeprecedo Biomedical Technology Co., Ltd. The Ba/F3 engineered cell line stably transfected with different kinase genes was recovered with RPMI 1640 medium (Biological Industries, Israel)+10% fetal bovine serum (Biological Industries, Israel)+1% double antibody (Penicillin Streptomycin solution, Coring, USA) and cultivated two generations. The logarithmic growth phase cell suspension was taken, and 2000 cells/well were inoculated on 96-well white cell culture plate (Corning 3917, NY, USA) with a volume of 95 μL per well. 5 μL of 20×DMSO solution of the compound to be tested was added into the culture plate containing 95 μL of cell suspension. The blank control group was added with corresponding volume of DMSO, mixed well, and incubated in a 5% CO2 incubator at 37° C. for 72 hours. CellTiter-Glo was used to detect cell viability.

ALK (G1202R) = ALK (G1202R) (Homo sapiens (Human), UniProt Q9UM73, G1202R); test: Radio-tagged HotSpot kinase assay, ALK (G1202R); type: biochemical
Chain of ALK (G1202R) (Q9UM73 19-1620 G1202R): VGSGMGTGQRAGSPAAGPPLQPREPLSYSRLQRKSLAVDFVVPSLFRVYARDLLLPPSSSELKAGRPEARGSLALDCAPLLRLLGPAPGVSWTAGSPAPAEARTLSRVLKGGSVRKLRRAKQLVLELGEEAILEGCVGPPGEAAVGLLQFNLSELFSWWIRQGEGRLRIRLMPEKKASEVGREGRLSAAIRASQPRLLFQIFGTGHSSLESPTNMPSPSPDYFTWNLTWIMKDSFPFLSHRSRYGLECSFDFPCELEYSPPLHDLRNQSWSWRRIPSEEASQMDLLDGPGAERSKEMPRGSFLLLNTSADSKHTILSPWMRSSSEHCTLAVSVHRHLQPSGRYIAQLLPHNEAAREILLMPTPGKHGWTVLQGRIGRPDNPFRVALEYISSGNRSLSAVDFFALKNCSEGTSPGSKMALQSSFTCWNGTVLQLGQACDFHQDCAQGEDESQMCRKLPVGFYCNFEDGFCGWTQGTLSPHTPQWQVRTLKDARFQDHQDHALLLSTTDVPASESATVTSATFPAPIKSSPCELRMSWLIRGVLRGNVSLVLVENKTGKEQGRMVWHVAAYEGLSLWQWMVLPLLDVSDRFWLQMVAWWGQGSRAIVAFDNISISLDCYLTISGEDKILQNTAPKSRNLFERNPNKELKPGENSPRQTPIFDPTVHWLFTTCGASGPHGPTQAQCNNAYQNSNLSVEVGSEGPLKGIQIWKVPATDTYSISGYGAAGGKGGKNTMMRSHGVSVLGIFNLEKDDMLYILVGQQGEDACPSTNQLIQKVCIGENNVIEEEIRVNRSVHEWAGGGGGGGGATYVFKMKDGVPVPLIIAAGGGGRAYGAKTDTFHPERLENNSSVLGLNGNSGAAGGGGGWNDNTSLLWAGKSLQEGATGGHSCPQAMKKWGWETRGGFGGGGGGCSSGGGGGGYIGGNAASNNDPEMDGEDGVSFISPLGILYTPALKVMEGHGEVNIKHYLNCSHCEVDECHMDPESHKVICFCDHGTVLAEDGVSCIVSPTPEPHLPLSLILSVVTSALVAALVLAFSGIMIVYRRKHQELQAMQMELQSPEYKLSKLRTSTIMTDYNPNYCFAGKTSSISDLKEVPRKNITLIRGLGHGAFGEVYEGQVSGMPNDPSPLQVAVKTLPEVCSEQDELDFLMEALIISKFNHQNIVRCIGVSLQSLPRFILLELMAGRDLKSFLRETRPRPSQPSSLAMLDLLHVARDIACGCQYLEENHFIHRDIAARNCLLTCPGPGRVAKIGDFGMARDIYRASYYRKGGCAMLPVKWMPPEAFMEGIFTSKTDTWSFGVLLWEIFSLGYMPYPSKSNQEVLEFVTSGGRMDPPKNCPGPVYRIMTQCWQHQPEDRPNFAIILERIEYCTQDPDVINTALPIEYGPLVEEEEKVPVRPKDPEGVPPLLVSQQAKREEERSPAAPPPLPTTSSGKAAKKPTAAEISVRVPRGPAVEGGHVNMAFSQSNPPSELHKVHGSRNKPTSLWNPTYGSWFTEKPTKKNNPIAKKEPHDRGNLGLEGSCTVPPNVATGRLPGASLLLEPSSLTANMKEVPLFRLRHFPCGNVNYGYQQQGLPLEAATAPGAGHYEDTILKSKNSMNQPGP
Experimental: (§2) Inhibition of protein kinase activity by compounds was carried out on the Radio-tagged HotSpot kinase experimental platform of Reaction Biology Corporation. Fresh reaction solution (20 mM TIEPESpH 7.5, 10 mM MgCl2, 1 mM EGTA, 0.02% Brij35, 0.02 mg/ml BSA, 0.1 mM Na3VO4, 2 mM DTT, […]) containing corresponding substrates was prepared, cofactor and kinase to be tested were added into the above solution and mixed gently. Echo550 pipetting system was used to add the test compound DMSO solution to each well (the blank control group was added with the corresponding volume of DMSO), then 33P-ATP (with a final specific activity of 0.01 μCi/μL) was added to start the reaction. The reaction solution was incubated at room temperature for 120 minutes. Transferred the incubated reaction solution to P81 ion exchange chromatographic paper (Whatman #3698-915), eluted with […] phosphoric acid solution, and the amount of radioactive phosphorylated substrate remaining on the chromatographic paper was detected.

TRKA = TRKA (Homo sapiens (Human), UniProt P04629); test: Radio-tagged HotSpot kinase assay, TRKA; type: biochemical
Chain of TRKA (P04629 33-796): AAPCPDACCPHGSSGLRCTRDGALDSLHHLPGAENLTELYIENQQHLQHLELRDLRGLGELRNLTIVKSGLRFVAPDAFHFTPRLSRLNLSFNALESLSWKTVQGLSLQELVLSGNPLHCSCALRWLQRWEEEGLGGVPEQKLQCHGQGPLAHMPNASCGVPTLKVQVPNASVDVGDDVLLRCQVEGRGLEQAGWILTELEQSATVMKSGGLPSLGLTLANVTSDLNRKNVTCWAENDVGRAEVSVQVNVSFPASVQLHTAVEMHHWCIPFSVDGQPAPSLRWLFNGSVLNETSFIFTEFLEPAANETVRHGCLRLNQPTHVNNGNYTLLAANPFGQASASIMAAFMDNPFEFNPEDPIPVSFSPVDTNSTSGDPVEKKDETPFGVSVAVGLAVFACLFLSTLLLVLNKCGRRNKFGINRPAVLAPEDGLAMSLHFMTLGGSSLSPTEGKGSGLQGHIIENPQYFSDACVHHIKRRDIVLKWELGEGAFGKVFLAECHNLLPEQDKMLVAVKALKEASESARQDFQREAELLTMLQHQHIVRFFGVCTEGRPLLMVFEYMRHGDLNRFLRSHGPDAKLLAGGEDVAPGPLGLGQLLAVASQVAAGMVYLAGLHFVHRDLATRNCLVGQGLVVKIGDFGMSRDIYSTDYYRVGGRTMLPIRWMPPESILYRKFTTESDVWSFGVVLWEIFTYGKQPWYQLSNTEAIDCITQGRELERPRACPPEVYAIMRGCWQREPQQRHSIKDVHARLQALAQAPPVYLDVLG
Experimental: as §2

ROS1 (G2032R) = ROS1 (G2032R) (Homo sapiens (Human), UniProt P08922, G2032R); test: Radio-tagged HotSpot kinase assay, ROS1 (G2032R); type: biochemical
Chain of ROS1 (G2032R) (P08922 28-2347 G2032R): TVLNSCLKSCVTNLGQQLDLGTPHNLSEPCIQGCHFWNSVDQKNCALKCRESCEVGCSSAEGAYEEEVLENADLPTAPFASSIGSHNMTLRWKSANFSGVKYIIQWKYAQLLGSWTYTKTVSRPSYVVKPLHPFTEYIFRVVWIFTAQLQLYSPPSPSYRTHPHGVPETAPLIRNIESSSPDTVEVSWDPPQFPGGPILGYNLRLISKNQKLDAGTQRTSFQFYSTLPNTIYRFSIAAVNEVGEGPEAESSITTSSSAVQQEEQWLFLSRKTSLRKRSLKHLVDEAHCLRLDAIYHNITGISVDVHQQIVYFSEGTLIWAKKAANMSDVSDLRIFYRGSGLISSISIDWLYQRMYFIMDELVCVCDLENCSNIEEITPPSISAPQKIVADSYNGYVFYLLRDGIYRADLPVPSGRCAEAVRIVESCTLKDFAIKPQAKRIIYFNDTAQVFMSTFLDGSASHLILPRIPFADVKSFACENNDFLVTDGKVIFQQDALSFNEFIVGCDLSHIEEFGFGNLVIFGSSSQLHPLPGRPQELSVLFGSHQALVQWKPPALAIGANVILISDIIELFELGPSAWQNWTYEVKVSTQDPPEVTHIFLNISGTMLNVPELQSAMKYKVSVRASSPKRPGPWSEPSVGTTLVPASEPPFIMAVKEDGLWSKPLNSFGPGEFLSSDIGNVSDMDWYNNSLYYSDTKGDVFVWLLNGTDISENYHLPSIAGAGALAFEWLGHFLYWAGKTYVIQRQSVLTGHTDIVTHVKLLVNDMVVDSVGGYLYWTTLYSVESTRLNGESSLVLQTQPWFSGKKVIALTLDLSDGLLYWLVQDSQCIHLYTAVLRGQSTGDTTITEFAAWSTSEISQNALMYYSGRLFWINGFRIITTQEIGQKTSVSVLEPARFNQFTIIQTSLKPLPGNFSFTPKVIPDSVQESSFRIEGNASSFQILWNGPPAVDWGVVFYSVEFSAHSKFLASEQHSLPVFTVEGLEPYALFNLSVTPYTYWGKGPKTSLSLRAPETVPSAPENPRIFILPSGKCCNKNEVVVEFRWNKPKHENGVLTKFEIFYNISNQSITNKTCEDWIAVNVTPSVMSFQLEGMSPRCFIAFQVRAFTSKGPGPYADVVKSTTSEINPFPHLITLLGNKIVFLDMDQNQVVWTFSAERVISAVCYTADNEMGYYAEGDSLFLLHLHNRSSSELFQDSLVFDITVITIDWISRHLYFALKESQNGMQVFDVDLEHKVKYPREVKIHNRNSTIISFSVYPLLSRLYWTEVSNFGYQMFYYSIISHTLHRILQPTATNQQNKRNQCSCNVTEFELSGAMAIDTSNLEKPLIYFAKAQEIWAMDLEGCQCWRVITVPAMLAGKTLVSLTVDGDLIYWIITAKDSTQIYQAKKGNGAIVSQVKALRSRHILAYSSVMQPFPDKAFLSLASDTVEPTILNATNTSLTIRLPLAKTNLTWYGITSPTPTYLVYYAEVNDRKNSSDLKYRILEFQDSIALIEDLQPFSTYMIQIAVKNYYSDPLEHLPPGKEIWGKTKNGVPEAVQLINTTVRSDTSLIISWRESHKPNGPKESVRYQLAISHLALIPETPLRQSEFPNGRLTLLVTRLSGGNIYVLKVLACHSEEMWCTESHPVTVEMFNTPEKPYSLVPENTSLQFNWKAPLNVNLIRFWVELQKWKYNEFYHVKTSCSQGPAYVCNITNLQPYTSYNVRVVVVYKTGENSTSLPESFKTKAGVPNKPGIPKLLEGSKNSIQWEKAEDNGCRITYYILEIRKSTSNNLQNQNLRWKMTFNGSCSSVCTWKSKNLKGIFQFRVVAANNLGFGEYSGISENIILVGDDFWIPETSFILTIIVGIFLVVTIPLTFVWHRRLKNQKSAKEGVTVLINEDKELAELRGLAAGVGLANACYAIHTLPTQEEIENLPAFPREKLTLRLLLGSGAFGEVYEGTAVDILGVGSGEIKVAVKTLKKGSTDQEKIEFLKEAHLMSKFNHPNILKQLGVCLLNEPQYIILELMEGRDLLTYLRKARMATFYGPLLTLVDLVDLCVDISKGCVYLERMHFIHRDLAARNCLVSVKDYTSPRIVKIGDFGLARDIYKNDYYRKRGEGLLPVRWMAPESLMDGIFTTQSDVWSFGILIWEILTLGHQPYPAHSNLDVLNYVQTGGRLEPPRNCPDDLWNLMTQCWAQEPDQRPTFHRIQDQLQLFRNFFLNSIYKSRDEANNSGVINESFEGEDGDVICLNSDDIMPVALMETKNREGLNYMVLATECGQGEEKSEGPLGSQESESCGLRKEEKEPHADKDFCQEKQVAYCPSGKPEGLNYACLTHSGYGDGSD
Experimental: as §2

ALK = ALK (Homo sapiens (Human), UniProt Q9UM73); test: Radio-tagged HotSpot kinase assay, ALK; type: biochemical
Chain of ALK (Q9UM73 19-1620): as the sequence (Q9UM73 19-1620 G1202R) above, with R1184G counted along it
Experimental: as §2

ROS1 = ROS1 (Homo sapiens (Human), UniProt P08922); test: Radio-tagged HotSpot kinase assay, ROS1; type: biochemical
Chain of ROS1 (P08922 28-2347): as the sequence (P08922 28-2347 G2032R) above, with R2005G counted along it
Experimental: as §2

TRKA (G677C) = TRKA (G677C) (Homo sapiens, UniProt P04629, G667C); test: Radio-tagged HotSpot kinase assay, TRKA (G677C); type: biochemical
Chain of TRKA (G677C) (P04629 33-796 G667C limits assumed): as the sequence (P04629 33-796) above, with G635C counted along it
Experimental: as §2

Ba/F3-LMNA-NTRK1-G595R = test: Inhibition of cell proliferation (CellTiter-Glo), Ba/F3-LMNA-NTRK1-G595R; type: cell-based; settings: 72 hours
Experimental: as §1

Ba/F3-TEL-ALK-G1202R = test: Inhibition of cell proliferation (CellTiter-Glo), Ba/F3-TEL-ALK-G1202R; type: cell-based; settings: 72 hours
Experimental: as §1

C[C@@H](Nc1ccn2ncc(C3=NOCCN3)c2n1)c1cc(F)ccc1OC(F)(F)F [Example 26]
IC50 (Ba/F3-CD74-ROS1-G2032R): 35.2 nM
IC50 (ALK (G1202R)): 5 to 50 nM
IC50 (TRKA): < 0.5 nM
IC50 (ROS1 (G2032R)): 0.5 to 5 nM
IC50 (ALK): 0.5 to 5 nM
IC50 (ROS1): < 0.5 nM
IC50 (TRKA (G677C)): 0.5 to 5 nM
IC50 (Ba/F3-LMNA-NTRK1-G595R): 11.2 nM
IC50 (Ba/F3-TEL-ALK-G1202R): 100 nM

From patent US20240025908A1, “COMPOUND USED AS KINASE INHIBITOR AND USE THEREOF” (TYK MEDICINES, INC., priority 2020, published 2024)
